Source: patent publication US20020077350A1 (Ashni Naturaceuticals, Inc., priority 2000, published 2002)
“Also recorded” adds a separate entry of the source.

How the values were obtained:
[1] = tested on: COX-2; type: cell-based, human; details: Jurkat cells, with and without arachidonic acid or arachidonic acid not specified
[2] = gastrointestinal disturbance, nausea and vomiting, hypotension, edema; cited from earlier work

C=C1CC[C@@H]2[C@](C)(CO)[C@H](O)CC[C@@]2(C)[C@@H]1C/C=C1/C(=O)OC[C@H]1O [Andrographolide]
inhibition of COX-2 enzyme protein expression [1]: does not inhibit; also recorded: little effect

CC1(C)CC[C@]2(C(=O)O)CC[C@]3(C)C(=CC[C@@H]4[C@@]5(C)CC[C@H](O)C(C)(C)[C@@H]5CC[C@]43C)[C@@H]2C1 [Oleanolic acid]
inhibition of COX-2 enzyme protein expression [1]: does not inhibit

CC(C)[C@]12O[C@H]1[C@@H]1O[C@]13[C@]1(O[C@H]1C[C@H]1C4=C(CC[C@@]13C)C(=O)OC4)[C@@H]2O [Triptolide]
patients showing some type of side effects [2]: Approximately 28%

C[C@H]1[C@H](C)CC[C@]2(C(=O)O)CC[C@]3(C)C(=CC[C@@H]4[C@@]5(C)CC[C@H](O)C(C)(C)[C@@H]5CC[C@]43C)[C@H]12 [Ursolic acid]
inhibition of COX-2 enzyme protein expression [1]: does not inhibit
